Where “and” joins values, the source holds several entries; their conditions need not be identical. Identical values can stand only once.

The subject of the experiment is 156681-154-R-J1-PDC tumor spheroids, viability % test/control. The experiment is described as follows: Anticancer human tumor 156681-154-R-J1-PDC patient-derived melanoma cell line growth inhibition [TAK]. The settings on record: spheroids with HUVEC and MSC; for viability, T/C: stronger effect = lower value. A digest of the protocol: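 Spheroids of 60% malignant cells, 25% HUVEC and 15% hMSC were exposed to targeted agents combined with TAK-243 or ipatasertib. Concentrations started at or near clinical Cmax (10 microM if unknown) and descended in half-log steps.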

Where [1] appears, read: curve of first compound, second compound 0.3 µM.
[2] abbreviates: curve of first compound, second compound 0.949 µM.
Where [3] appears, read: curve of first compound, second compound 3 µM.
The mark [4] stands for this setting: curve of first compound, second compound 9.49 µM.
[5] abbreviates: curve of first compound, second compound 30 µM.
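Note: spheroids exposed to compounds for 7 days before the endpoint.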

Consider `CC(C)CC(NC(=O)C(Cc1ccccc1)NC(=O)c1cnccn1)B(O)O` (centres undefined) + CC(C)NCC(C(=O)N1CCN(c2ncnc3c2C(C)CC3O)CC1)c1ccc(Cl)cc1, for which the IC50 (in general, the midpoint of a concentration-inhibition curve) is, setting by setting: under setting [1], 2.09 nM; under setting [2], 1.76 nM; under setting [3], 1.44 nM; under setting [4], under 0.0316 nM; under setting [5], under 0.0316 nM. Moreover, the viability, T/C (as a rule, the ratio of treated to control) was 98.5% (second compound 0.3 µM, first compound 31.6 pM); 97% (second compound 0.3 µM, first compound 0.0001 µM); 91.9% (second compound 0.3 µM, first compound 0.000316 µM); 97.3% (second compound 0.3 µM, first compound 0.001 µM); 23.9% (second compound 0.3 µM, first compound 0.00316 µM); 0.32% (second compound 0.3 µM, first compound 0.01 µM). The viability, T/C runs as follows: (second compound 0.949 µM, first compound 31.6 pM) 85.2%; (second compound 0.949 µM, first compound 0.0001 µM) 87.4%; (second compound 0.949 µM, first compound 0.000316 µM) 91%; (second compound 0.949 µM, first compound 0.001 µM) 90.1%; (second compound 0.949 µM, first compound 0.00316 µM) 9.77%; (second compound 0.949 µM, first compound 0.01 µM) 0.19%. The viability, T/C is, setting by setting: (second compound 3 µM, first compound 31.6 pM) 63.9%; (second compound 3 µM, first compound 0.0001 µM) 67.6%; (second compound 3 µM, first compound 0.000316 µM) 66%; (second compound 3 µM, first compound 0.001 µM) 66.7%; (second compound 3 µM, first compound 0.00316 µM) 15.7%; (second compound 3 µM, first compound 0.01 µM) 0.22%. Besides, the viability, T/C (second compound 9.49 µM, first compound 31.6 pM) is 40.6%; the viability, T/C (second compound 9.49 µM, first compound 0.0001 µM) was 39%; the viability, T/C (second compound 9.49 µM, first compound 0.000316 µM) was 37.8%; the viability, T/C (second compound 9.49 µM, first compound 0.001 µM) was 37.6%; the viability, T/C (second compound 9.49 µM, first compound 0.00316 µM) is 7.12%; the viability, T/C (second compound 9.49 µM, first compound 0.01 µM) was 0.21%. The viability, T/C was 17.8% (second compound 30 µM, first compound 31.6 pM); 18.6% (second compound 30 µM, first compound 0.0001 µM); 16.9% (second compound 30 µM, first compound 0.000316 µM); 17.3% (second compound 30 µM, first compound 0.001 µM); 1.86% (second compound 30 µM, first compound 0.00316 µM); 0.31% (second compound 30 µM, first compound 0.01 µM).

For `CCCS(=O)(=O)Nc1ccc(F)c(C(=O)c2c[nH]c3ncc(-c4ccc(Cl)cc4)cc23)c1F`, the viability, T/C is, setting by setting: (compound 0.316 µM) 115% and 97.9%; (compound 1 µM) 107% and 92.3%; (compound 3.16 µM) 106% and 99.3%; (compound 10 µM) 12.5% and 20.2%; (compound 31.6 µM) 103% and 16.7%; (compound 100 µM) 83.9% and 100%.

Consider `CC(C)NCC(C(=O)N1CCN(c2ncnc3c2C(C)CC3O)CC1)c1ccc(Cl)cc1` (centres undefined), for which the viability, T/C is, setting by setting: (compound 0.3 µM) 99.2% [middle of 10 runs]; (compound 0.949 µM) 91.1% [middle of 10 runs]; (compound 3 µM) 70.3% [middle of 10 runs]; (compound 9.49 µM) 41.4% [middle of 10 runs]; (compound 30 µM) 19.1% [middle of 10 runs]. The IC50 (compound alone, run of 02/20/2020) was 6.66 µM [middle of 10 runs].

For `CC(C)n1nc(-c2ccc3oc(N)nc3c2)c2c(N)ncnc21`, the viability, T/C was 97.2% and 94.8% (compound 0.000316 µM); 95.3% and 91.7% (compound 0.001 µM); 81.4% and 96.3% (compound 0.00316 µM); 80.2% and 86.3% (compound 0.01 µM); 48% and 56.1% (compound 0.0316 µM); 33.3% and 34.1% (compound 0.1 µM). The half-maximal inhibitory concentration (IC50) (curve of compound) is 33.9 nM and 43.3 nM.

Turning to `Cc1nc(NC(=O)N2CCCC2C(N)=O)sc1-c1ccnc(C(C)(C)C(F)(F)F)c1` (centres undefined) + CC(C)NCC(C(=O)N1CCN(c2ncnc3c2C(C)CC3O)CC1)c1ccc(Cl)cc1, the IC50 was over 10000 nM under setting [1]; 7110 nM under setting [2]; 1460 nM under setting [3]; under 31.6 nM under setting [4]; under 31.6 nM under setting [5]. Also, the viability, T/C is 95.5% (second compound 0.3 µM, first compound 0.0316 µM); 99% (second compound 0.3 µM, first compound 0.1 µM); 91% (second compound 0.3 µM, first compound 0.316 µM); 71.5% (second compound 0.3 µM, first compound 1 µM); 67.3% (second compound 0.3 µM, first compound 3.16 µM); 51.4% (second compound 0.3 µM, first compound 10 µM). Also, the viability, T/C by setting is: (second compound 0.949 µM, first compound 0.0316 µM) 85.8%; (second compound 0.949 µM, first compound 0.1 µM) 83.9%; (second compound 0.949 µM, first compound 0.316 µM) 79%; (second compound 0.949 µM, first compound 1 µM) 70.3%; (second compound 0.949 µM, first compound 3.16 µM) 62%; (second compound 0.949 µM, first compound 10 µM) 44.9%. In addition, the viability, T/C was 69.7% (second compound 3 µM, first compound 0.0316 µM); 67.9% (second compound 3 µM, first compound 0.1 µM); 61.5% (second compound 3 µM, first compound 0.316 µM); 53.8% (second compound 3 µM, first compound 1 µM); 42.5% (second compound 3 µM, first compound 3.16 µM); 30.6% (second compound 3 µM, first compound 10 µM). Also, the viability, T/C was 39.5% (second compound 9.49 µM, first compound 0.0316 µM); 35.6% (second compound 9.49 µM, first compound 0.1 µM); 36.6% (second compound 9.49 µM, first compound 0.316 µM); 26.8% (second compound 9.49 µM, first compound 1 µM); 17.2% (second compound 9.49 µM, first compound 3.16 µM); 7.68% (second compound 9.49 µM, first compound 10 µM). Further, the viability, T/C is, setting by setting: (second compound 30 µM, first compound 0.0316 µM) 18%; (second compound 30 µM, first compound 0.1 µM) 18%; (second compound 30 µM, first compound 0.316 µM) 11.3%; (second compound 30 µM, first compound 1 µM) 8.89%; (second compound 30 µM, first compound 3.16 µM) 3.83%; (second compound 30 µM, first compound 10 µM) 0.52%.

(Values after PubChem BioAssay AID2060363 (Molecular Pharmacology Branch, DTP, NCI, 2025).)
